Test results from ChEMBL document CHEMBL4257490, “Development of a peptide-based bifunctional chelator conjugated to a cytotoxic drug for the treatment of melanotic melanoma” (Medchemcomm, 2018).

How the values were obtained:
[1] = Drug uptake in mouse B16F10 cells using 99mTc(CO)3-labeled compound at 15 to 20 MBq/ml after 240 mins by gamma scintillation counting method; assay type: ADME, cell-based; conditions: b16-f10, 4 h
[2] = n-Octanol-phosphate buffer partition co-efficient, log P of 99mTc(CO)3-labeled compound at 2 to 3 KBq after 1 min by gamma scintillation counting method; assay type: physicochemical
[3] = Drug uptake in urine of Balb/c mouse allografted with mouse B16F10 cells using 99mTc(CO)3-labeled compound at 10 to 12 MBq/kg, iv measured at 2 hrs; assay type: ADME, organism-based; conditions: in vivo
[4] = Drug uptake in stomach of Balb/c mouse allografted with mouse B16F10 cells using 99mTc(CO)3-labeled compound at 10 to 12 MBq/kg, iv measured at 4 hrs; assay type: ADME, organism-based; conditions: in vivo
[5] = Ratio of drug level in tumor to blood of Balb/c mouse allografted with mouse B16F10 cells using 99mTc(CO)3-labeled compound at 10 to 12 MBq/kg, iv measured at 4 hrs; assay type: ADME, organism-based, Tumor/tissue
[6] = Drug uptake in muscle of Balb/c mouse allografted with mouse B16F10 cells using 99mTc(CO)3-labeled compound at 10 to 12 MBq/kg, iv measured at 2 hrs; assay type: ADME, organism-based, Muscle tissue; conditions: in vivo
[7] = Drug uptake in kidney of Balb/c mouse allografted with mouse B16F10 cells using 99mTc(CO)3-labeled compound at 10 to 12 MBq/kg, iv measured at 4 hrs; assay type: ADME, organism-based; conditions: in vivo
[8] = Drug uptake in mouse B16F10 cells using 99mTc(CO)3-labeled compound at 15 to 20 MBq/ml after 30 mins by gamma scintillation counting method relative to total added activity; assay type: ADME, cell-based; conditions: b16-f10, 0.5 h
[9] = Drug uptake in intestine of Balb/c mouse allografted with mouse B16F10 cells using 99mTc(CO)3-labeled compound at 10 to 12 MBq/kg, iv measured at 2 hrs; assay type: ADME, organism-based; conditions: in vivo
[10] = Drug uptake in tumor muscle of Balb/c mouse allografted with mouse B16F10 cells using 99mTc(CO)3-labeled compound at 10 to 12 MBq/kg, iv measured at 4 hrs; assay type: ADME, organism-based; conditions: in vivo
[11] = Ratio of drug level in tumor to blood of Balb/c mouse allografted with mouse B16F10 cells using 99mTc(CO)3-labeled compound at 10 to 12 MBq/kg, iv measured at 2 hrs; assay type: ADME, organism-based, Tumor/tissue
[12] = Drug uptake in liver of Balb/c mouse allografted with mouse B16F10 cells using 99mTc(CO)3-labeled compound at 10 to 12 MBq/kg, iv measured at 2 hrs; assay type: ADME, organism-based; conditions: in vivo
[13] = Hemolytic activity in rat erythrocytes at 100 uM after 1 hr relative to control; assay type: ADME, cell-based, Erythrocyte; conditions: read-out: Activity
[14] = Drug uptake in urinary bladder of Balb/c mouse allografted with mouse B16F10 cells using 99mTc(CO)3-labeled compound at 4 to 8 MBq, iv measured at 4 hrs by scintigraphic imaging method; assay type: ADME, organism-based; conditions: in vivo
[15] = Drug uptake in blood of Balb/c mouse allografted with mouse B16F10 cells using 99mTc(CO)3-labeled compound at 10 to 12 MBq/kg, iv measured at 4 hrs; assay type: ADME, organism-based; conditions: in vivo
[16] = Drug uptake in gastrointestinal tract of Balb/c mouse allografted with mouse B16F10 cells using 99mTc(CO)3-labeled compound at 4 to 8 MBq, iv measured at 4 hrs by scintigraphic imaging method; assay type: ADME, organism-based; conditions: in vivo
[17] = Drug uptake in spleen of Balb/c mouse allografted with mouse B16F10 cells using 99mTc(CO)3-labeled compound at 10 to 12 MBq/kg, iv measured at 2 hrs; assay type: ADME, organism-based; conditions: in vivo
[18] = Drug uptake in lung of Balb/c mouse allografted with mouse B16F10 cells using 99mTc(CO)3-labeled compound at 10 to 12 MBq/kg, iv measured at 2 hrs; assay type: ADME, organism-based; conditions: in vivo
[19] = Hemolytic activity in rat erythrocytes up to 50 uM after 1 hr relative to control; assay type: ADME, cell-based, Erythrocyte; conditions: read-out: Activity
[20] = Ratio of drug level in tumor to muscle of Balb/c mouse allografted with mouse B16F10 cells using 99mTc(CO)3-labeled compound at 10 to 12 MBq/kg, iv measured at 2 hrs; assay type: ADME, organism-based, Tumor/tissue; conditions: in vivo
[21] = Drug uptake in mouse B16F10 cells using 99mTc(CO)3-labeled compound at 15 to 20 MBq/ml after 30 mins by gamma scintillation counting method; assay type: ADME, cell-based; conditions: b16-f10, 0.5 h
[22] = Drug uptake in stomach of Balb/c mouse allografted with mouse B16F10 cells using 99mTc(CO)3-labeled compound at 10 to 12 MBq/kg, iv measured at 2 hrs; assay type: ADME, organism-based; conditions: in vivo
[23] = Drug uptake in liver of Balb/c mouse allografted with mouse B16F10 cells using 99mTc(CO)3-labeled compound at 4 to 8 MBq, iv measured at 4 hrs by scintigraphic imaging method; assay type: ADME, organism-based; conditions: in vivo
[24] = Drug uptake in muscle of Balb/c mouse allografted with mouse B16F10 cells using 99mTc(CO)3-labeled compound at 10 to 12 MBq/kg, iv measured at 4 hrs; assay type: ADME, organism-based, Muscle tissue; conditions: in vivo
[25] = Drug uptake in heart of Balb/c mouse allografted with mouse B16F10 cells using 99mTc(CO)3-labeled compound at 10 to 12 MBq/kg, iv measured at 2 hrs; assay type: ADME, organism-based; conditions: in vivo
[26] = Stability in saline assessed as parent compond remaining using 99mTc(CO)3-labeled compound after 24 hrs by TLC method; assay type: physicochemical; conditions: read-out: Stability
[27] = Metabolic stability in rat serum assessed as parent compound remaining using 99mTc(CO)3-labeled compound after 24 hrs by TLC method; assay type: ADME, cell-free; conditions: read-out: Stability
[28] = Drug uptake in kidney of Balb/c mouse allografted with mouse B16F10 cells using 99mTc(CO)3-labeled compound at 10 to 12 MBq/kg, iv measured at 2 hrs; assay type: ADME, organism-based; conditions: in vivo
[29] = Drug uptake in blood of Balb/c mouse allografted with mouse B16F10 cells using 99mTc(CO)3-labeled compound at 10 to 12 MBq/kg, iv measured at 2 hrs; assay type: ADME, organism-based; conditions: in vivo
[30] = Drug degradation in histidine solution using 99mTc(CO)3-labeled compound after 24 hrs by TLC method; assay type: physicochemical; conditions: read-out: Drug degradation
[31] = Drug uptake in mouse B16F10 cells using 99mTc(CO)3-labeled compound at 15 to 20 MBq/ml after 240 mins by gamma scintillation counting method relative to total added activity; assay type: ADME, cell-based; conditions: b16-f10, 4 h
[32] = Drug uptake in kidney of Balb/c mouse allografted with mouse B16F10 cells using 99mTc(CO)3-labeled compound at 4 to 8 MBq, iv measured at 4 hrs by scintigraphic imaging method; assay type: ADME, organism-based; conditions: in vivo
[33] = Drug uptake in lung of Balb/c mouse allografted with mouse B16F10 cells using 99mTc(CO)3-labeled compound at 10 to 12 MBq/kg, iv measured at 4 hrs; assay type: ADME, organism-based; conditions: in vivo
[34] = Drug uptake in spleen of Balb/c mouse allografted with mouse B16F10 cells using 99mTc(CO)3-labeled compound at 10 to 12 MBq/kg, iv measured at 4 hrs; assay type: ADME, organism-based; conditions: in vivo
[35] = Ratio of drug level in tumor to muscle of Balb/c mouse allografted with mouse B16F10 cells using 99mTc(CO)3-labeled compound at 10 to 12 MBq/kg, iv measured at 4 hrs; assay type: ADME, organism-based, Tumor/tissue; conditions: in vivo
[36] = Drug uptake in urine of Balb/c mouse allografted with mouse B16F10 cells using 99mTc(CO)3-labeled compound at 10 to 12 MBq/kg, iv measured at 4 hrs; assay type: ADME, organism-based; conditions: in vivo
[37] = Drug uptake in heart of Balb/c mouse allografted with mouse B16F10 cells using 99mTc(CO)3-labeled compound at 10 to 12 MBq/kg, iv measured at 4 hrs; assay type: ADME, organism-based; conditions: in vivo
[38] = Drug uptake in liver of Balb/c mouse allografted with mouse B16F10 cells using 99mTc(CO)3-labeled compound at 10 to 12 MBq/kg, iv measured at 4 hrs; assay type: ADME, organism-based; conditions: in vivo
[39] = Drug uptake in tumor of Balb/c mouse allografted with mouse B16F10 cells using 99mTc(CO)3-labeled compound at 4 to 8 MBq, iv measured at 4 hrs by scintigraphic imaging method; assay type: ADME, organism-based, Neoplasm; conditions: in vivo
[40] = Drug uptake in intestine of Balb/c mouse allografted with mouse B16F10 cells using 99mTc(CO)3-labeled compound at 10 to 12 MBq/kg, iv measured at 4 hrs; assay type: ADME, organism-based; conditions: in vivo
[41] = Drug uptake in tumor muscle of Balb/c mouse allografted with mouse B16F10 cells using 99mTc(CO)3-labeled compound at 10 to 12 MBq/kg, iv measured at 2 hrs; assay type: ADME, organism-based; conditions: in vivo

H-HYKHGK-NH2
Drug uptake [1]: 83%
logP at 1 min [2]: -0.978
Drug uptake [3]: 42.15 %ID/ml
Drug uptake [4]: 0.19 % ID/g
Kp at 4 h [5]: 1.82
Drug uptake [6]: 0.18 % ID/g
Drug uptake [7]: 15.76 % ID/g
Drug uptake [8]: 4.76%
Drug uptake [9]: 7.61 % ID/g
Drug uptake [10]: 3.01 % ID/g
Kp at 2 h [11]: 0.97
Drug uptake [12]: 18.15 % ID/g
hemolysis at 1 h, 100 µM [13]: 7 to 9%
Drug uptake [14]: Active
Drug uptake [15]: 1.65 %ID/ml
Drug uptake [16]: Active
Drug uptake [17]: 0.63 % ID/g
Drug uptake [18]: 0.33 % ID/g
hemolysis at 1 h [19]: 5 to 6%
Ratio [20]: 10.11
Drug uptake [21]: 41.41%
Drug uptake [22]: 0.23 % ID/g
Drug uptake [23]: Active
Drug uptake [24]: 0.16 % ID/g
Drug uptake [25]: 0.08 % ID/g
remaining at 24 h [26]: ≥ 92%
remaining at 24 h [27]: ≥ 92%
Drug uptake [28]: 17.15 % ID/g
Drug uptake [29]: 1.88 %ID/ml
degraded at 24 h [30]: 5%
Drug uptake [31]: 9.59%
Drug uptake [32]: Active
Drug uptake [33]: 0.24 % ID/g
Drug uptake [34]: 0.45 % ID/g
Ratio [35]: 18.81
Drug uptake [36]: 49.26 %ID/ml
Drug uptake [37]: 0.06 % ID/g
Drug uptake [38]: 14.64 % ID/g
Drug uptake [39]: Active
Drug uptake [40]: 8.32 % ID/g
Drug uptake [41]: 1.83 % ID/g

H-HYKHGKDGR-NH2
Drug uptake [1]: 76%
logP at 1 min [2]: -1.34
Drug uptake [3]: 41.15 %ID/ml
Drug uptake [4]: 0.21 % ID/g
Kp at 4 h [5]: 0.83
Drug uptake [6]: 0.16 % ID/g
Drug uptake [7]: 13.91 % ID/g
Drug uptake [8]: 3.99%
Drug uptake [9]: 7.5 % ID/g
Drug uptake [10]: 1.09 % ID/g
Kp at 2 h [11]: 0.61
Drug uptake [12]: 21.17 % ID/g
hemolysis at 1 h, 100 µM [13]: 7 to 9%
Drug uptake [14]: Active
Drug uptake [15]: 1.31 %ID/ml
Drug uptake [16]: Active
Drug uptake [17]: 0.76 % ID/g
Drug uptake [18]: 0.25 % ID/g
hemolysis at 1 h [19]: 5 to 6%
Ratio [20]: 5.75
Drug uptake [21]: 35.24%
Drug uptake [22]: 0.29 % ID/g
Drug uptake [23]: Active
Drug uptake [24]: 0.14 % ID/g
Drug uptake [25]: 0.09 % ID/g
remaining at 24 h [26]: ≥ 92%
remaining at 24 h [27]: ≥ 92%
Drug uptake [28]: 16.12 % ID/g
Drug uptake [29]: 1.5 %ID/ml
degraded at 24 h [30]: 5%
Drug uptake [31]: 6.11%
Drug uptake [32]: Active
Drug uptake [33]: 0.19 % ID/g
Drug uptake [34]: 0.54 % ID/g
Ratio [35]: 7.78
Drug uptake [36]: 45.95 %ID/ml
Drug uptake [37]: 0.07 % ID/g
Drug uptake [38]: 18.89 % ID/g
Drug uptake [39]: Not Active
Drug uptake [40]: 6.3 % ID/g
Drug uptake [41]: 0.92 % ID/g
